This test has as its target T1, GtCPES (Guillardia theta, UniProt L1JFC7, M146A).
T1 sequence (L1JFC7 80-253 M146A): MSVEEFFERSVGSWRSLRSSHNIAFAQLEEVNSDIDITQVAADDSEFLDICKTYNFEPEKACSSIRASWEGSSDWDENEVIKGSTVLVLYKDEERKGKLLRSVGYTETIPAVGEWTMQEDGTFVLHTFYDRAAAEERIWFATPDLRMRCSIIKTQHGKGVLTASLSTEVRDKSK
As to the kind of experiment: UV-Vis absorbance titration. The class given is binding.

This is an account of results in paper doi:10.1101/2020.03.31.018853v1 (biorxiv, 2020).

The Kd is the concentration at which binding is half-saturated. Higher therefore signals weaker binding.

`C/C=C1/C(=C/c2[nH]c(/C=C3N=C(/C=C4\NC(=O)C(CC)=C4C)C(C)=C\3CCC(=O)O)c(CCC(=O)O)c2C)NC(=O)[C@@H]1C` [3(E)-PCB] came in with a Kd of 7 ± 0.4 µM.
